Measurements reported in ChEMBL document CHEMBL1201862, “PubChem BioAssay data set” (2004).
Active and inactive are the calls of the source.

Assays:
[1] = target: T1, Intestinal-type alkaline phosphatase (Mus musculus, UniProt P24822); assay: PubChem AID 488785; format: functional
Large T antigen = Large T antigen (Simian virus 40, UniProt P03070); format: functional, Betapolyomavirus macacae;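 note: Confirmatory-stage PubChem screen for compounds that inhibit SV40 T antigen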
[2] = target: T2, Intestinal-type alkaline phosphatase (Homo sapiens, UniProt P09923); assay: inhibition of human intestinal alkaline phosphatase – biochemical, dose response (AID 488876); format: functional
[3] = target: T3, Alkaline phosphatase, tissue-nonspecific isozyme (Homo sapiens, UniProt P05186); assay: TNAP enzyme inhibition by screening hits, dose response, selectivity assay for mouse IAP inhibitor project, biochemical, human TNAP, uHTS hits (AID 488906); format: functional
T3 sequence (P05186 whole entry): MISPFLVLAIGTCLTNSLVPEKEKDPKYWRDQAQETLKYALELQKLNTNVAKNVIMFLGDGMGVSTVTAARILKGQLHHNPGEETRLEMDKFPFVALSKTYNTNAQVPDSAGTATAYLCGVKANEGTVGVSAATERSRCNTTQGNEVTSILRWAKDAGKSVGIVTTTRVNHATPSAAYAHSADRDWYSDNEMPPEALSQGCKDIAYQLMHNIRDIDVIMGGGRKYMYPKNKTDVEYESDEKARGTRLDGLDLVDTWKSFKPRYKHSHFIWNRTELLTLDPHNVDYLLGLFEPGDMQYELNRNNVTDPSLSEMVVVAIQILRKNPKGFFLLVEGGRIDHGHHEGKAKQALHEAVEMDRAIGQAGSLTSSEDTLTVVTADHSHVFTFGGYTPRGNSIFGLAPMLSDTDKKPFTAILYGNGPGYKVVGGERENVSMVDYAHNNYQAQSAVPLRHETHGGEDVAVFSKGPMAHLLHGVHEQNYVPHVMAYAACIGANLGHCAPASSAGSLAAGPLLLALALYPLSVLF

[4] = target: T4, Kappa-type opioid receptor (Homo sapiens, UniProt P41145); assay: SAR analysis of small molecule agonists of the kappa opioid receptor via a luminescent beta-arrestin assay. [Related pubchem assays (depositor defined):AID1777, AID1786, AID1966, AID2133, AID2136, AID2348, AID2352, AID2357, AID2359, AID2370, AID2420, AID2478, AID2491, AID2492, AID2493, AID2497, AID2498, AID2500, AID449737, AID488822, AID488842]; format: functional
[5] = target: T4, Kappa-type opioid receptor; assay: KOR agonist analogs, imaging readout, SAR follow-up, image-based (AID 2359); format: functional
[6] = target: T5, Delta-type opioid receptor (Homo sapiens, UniProt P41143); assay: DOR antagonists, SAR follow-up, image-based (AID 2357); format: functional
[7] = target: T4, Kappa-type opioid receptor; assay: KOR antagonists by imaging, SAR follow-up, image-based (AID 2348); format: functional
Mu-type opioid receptor [8] = target: T6, Mu-type opioid receptor (Homo sapiens, UniProt P35372); assay: MOR agonists by imaging, SAR follow-up, image-based (AID 2352); format: functional
Mu-type opioid receptor [9] = target: T6, Mu-type opioid receptor; assay: MOR antagonists, SAR follow-up, image-based (AID 2420); format: functional;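 note: compounds added before stimulation of receptor with agonist DAMGO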
[10] = target: T5, Delta-type opioid receptor; assay: DOR agonists, SAR follow-up, image-based (AID 2370); format: functional
[11] = target: T7, Mannose-6-phosphate isomerase (Homo sapiens, UniProt P34949); assay: human PMI inhibitors, high substrate, primary screen, biochemical, fluorescence intensity, high mannose 6-phosphate (AID 1220)
T7 sequence (P34949 whole entry): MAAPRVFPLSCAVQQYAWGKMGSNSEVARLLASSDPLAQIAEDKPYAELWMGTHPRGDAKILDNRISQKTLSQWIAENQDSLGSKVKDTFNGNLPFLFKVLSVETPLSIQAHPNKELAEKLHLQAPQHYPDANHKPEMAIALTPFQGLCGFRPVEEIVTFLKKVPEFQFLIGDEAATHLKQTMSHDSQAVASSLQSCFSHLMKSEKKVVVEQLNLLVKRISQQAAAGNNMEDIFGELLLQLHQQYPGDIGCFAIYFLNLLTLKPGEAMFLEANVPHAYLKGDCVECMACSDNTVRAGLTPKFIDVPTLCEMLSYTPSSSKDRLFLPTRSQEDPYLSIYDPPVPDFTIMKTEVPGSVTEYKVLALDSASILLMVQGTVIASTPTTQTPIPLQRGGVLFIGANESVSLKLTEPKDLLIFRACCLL

[12] = target: Eukaryotic translation initiation factor 4E (Mus musculus, UniProt P63073); assay: eIF4E–eIF4G protein interaction inhibitors, dose response, biochemical, TR-FRET (AID 855); format: functional;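 note: potency for disrupting eIF4E binding to eIF4GI seen as loss of FRET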
[13] = target: T7, Mannose-6-phosphate isomerase; assay: PMI enzyme inhibitors, confirmation, biochemical, fluorescence intensity (AID 1535)
Phosphomannomutase 2 = Phosphomannomutase 2 (Homo sapiens, UniProt O15305); assay: Counter screen SAR assay for PMM2 inhibitors via a fluorescence intensity assay. [Related pubchem assays (depositor defined):AID1545, AID1574]
[14] = target: T8, Apoptotic protease-activating factor 1 (Homo sapiens, UniProt O14727); assay: activation of Apaf-1 mediated apoptosis – fluorescent, uHTS hits, dose response (AID 588554); format: functional
T8 sequence (O14727 whole entry): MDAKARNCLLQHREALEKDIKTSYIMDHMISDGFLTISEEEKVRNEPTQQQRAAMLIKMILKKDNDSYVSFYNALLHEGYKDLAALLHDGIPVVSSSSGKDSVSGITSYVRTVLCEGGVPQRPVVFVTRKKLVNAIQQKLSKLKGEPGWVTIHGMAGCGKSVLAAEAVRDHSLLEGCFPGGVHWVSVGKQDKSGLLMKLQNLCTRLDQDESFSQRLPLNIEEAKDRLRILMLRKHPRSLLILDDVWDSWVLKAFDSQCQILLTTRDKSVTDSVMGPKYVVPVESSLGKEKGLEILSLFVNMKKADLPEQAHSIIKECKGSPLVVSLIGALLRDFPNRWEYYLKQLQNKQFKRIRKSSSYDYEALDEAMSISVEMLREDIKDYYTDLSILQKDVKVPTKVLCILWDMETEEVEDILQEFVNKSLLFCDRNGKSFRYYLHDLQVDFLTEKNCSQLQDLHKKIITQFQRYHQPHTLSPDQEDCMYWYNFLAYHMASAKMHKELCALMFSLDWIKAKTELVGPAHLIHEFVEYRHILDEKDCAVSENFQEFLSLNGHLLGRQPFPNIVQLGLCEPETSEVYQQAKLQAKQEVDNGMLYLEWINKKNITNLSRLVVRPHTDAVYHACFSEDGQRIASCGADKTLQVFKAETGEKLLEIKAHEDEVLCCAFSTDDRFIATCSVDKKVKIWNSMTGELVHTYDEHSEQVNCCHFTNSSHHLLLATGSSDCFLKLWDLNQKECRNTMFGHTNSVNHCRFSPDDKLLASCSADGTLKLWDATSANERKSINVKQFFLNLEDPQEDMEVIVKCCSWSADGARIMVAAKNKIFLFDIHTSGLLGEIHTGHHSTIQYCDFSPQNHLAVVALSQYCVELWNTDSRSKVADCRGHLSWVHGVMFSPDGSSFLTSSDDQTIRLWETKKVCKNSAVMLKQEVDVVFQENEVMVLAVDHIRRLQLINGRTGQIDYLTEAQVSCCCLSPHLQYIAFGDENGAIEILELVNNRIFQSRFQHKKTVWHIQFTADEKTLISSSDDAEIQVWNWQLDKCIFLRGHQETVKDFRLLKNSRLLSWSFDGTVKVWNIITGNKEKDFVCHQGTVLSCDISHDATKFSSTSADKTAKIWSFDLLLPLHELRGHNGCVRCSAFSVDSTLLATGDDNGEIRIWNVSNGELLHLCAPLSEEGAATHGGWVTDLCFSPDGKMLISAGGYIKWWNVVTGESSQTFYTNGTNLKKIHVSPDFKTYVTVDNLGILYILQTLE

[15] = target: T9, Carboxy-terminal domain RNA polymerase II polypeptide A small phosphatase 1 (Homo sapiens, UniProt Q9GZU7); assay: inhibitors of CTDSP1, concentration-response testing, biochemical assay, absorbance-based, actives from ultra-high-throughput screening (AID 540297); format: functional
T9 sequence (Q9GZU7 whole entry): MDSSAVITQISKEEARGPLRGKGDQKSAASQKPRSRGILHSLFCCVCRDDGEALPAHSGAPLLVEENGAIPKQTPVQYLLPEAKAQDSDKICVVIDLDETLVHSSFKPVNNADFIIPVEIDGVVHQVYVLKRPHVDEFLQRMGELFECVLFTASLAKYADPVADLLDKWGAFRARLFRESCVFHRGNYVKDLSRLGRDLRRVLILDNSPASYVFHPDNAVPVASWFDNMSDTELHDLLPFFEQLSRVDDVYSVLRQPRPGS

[16] = target: T10, Small ubiquitin-related modifier 1 (Homo sapiens, UniProt P63165); assay: inhibitors of SUMO1 peptide binding, dose response, biochemical, fluorescence polarization, uHTS hits (AID 624382); format: functional; settings: read-out: IC50_Mean
[17] = target: DNA (cytosine-5)-methyltransferase 1 (Homo sapiens, UniProt P26358); assay: DNMT1 methyltransferase inhibitors, confirmation, biochemical, fluorescent molecular beacon (AID 602386); format: functional
[18] = target: T10, Small ubiquitin-related modifier 1; assay: inhibitors of SUMO1 partner interactions, dose response, biochemical, FRET (AID 624383); format: functional; settings: read-out: IC50_Mean
[19] = target: T11, Voltage-gated N-type calcium channel alpha-1B subunit/Amyloid beta A4 precursor protein-binding family A member 1 (Homo sapiens, UniProt Q00975+Q02410); format: protein assay
[20] = target: T11, Voltage-gated N-type calcium channel alpha-1B subunit/Amyloid beta A4 precursor protein-binding family A member 1; format: protein assay; remark: listed apart in the source
[21] = target: Induced myeloid leukemia cell differentiation protein Mcl-1 (Homo sapiens, UniProt Q07820); format: functional
[22] = target: T1, Intestinal-type alkaline phosphatase; assay: PubChem AID 488874; format: functional
[23] = target: T2, Intestinal-type alkaline phosphatase; assay: human IAP activators, dose response, biochemical, luminescent, uHTS hits, set 2 (AID 488817); format: functional;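 note: potency of activators that raise enzyme activity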
[24] = target: T2, Intestinal-type alkaline phosphatase; assay: human intestinal alkaline phosphatase activators, dose response, biochemical, luminescence, uHTS hits (AID 463120); format: functional
[25] = target: T3, Alkaline phosphatase, tissue-nonspecific isozyme; assay: TNAP enzyme activators, dose response, selectivity assay for human IAP activator project, biochemical, TNAP isozyme, human IAP uHTS hits (AID 488886); format: functional;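 note: potency of compounds raising TNAP activity as a selectivity check on IAP activators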
[26] = target: T12, Serine/threonine-protein phosphatase (Candida dubliniensis (strain CD36 / CBS 7987 / NCPF 3949 / NRRLY-17841) (Yeast), UniProt B9W6M3); assay: Fluorescence Cell-Based Secondary Assay to Identify Inhibitors of Calcineurin. [Related pubchem assays (depositor defined):AID1979, AID2007]; format: functional
T12 sequence (B9W6M3 whole entry): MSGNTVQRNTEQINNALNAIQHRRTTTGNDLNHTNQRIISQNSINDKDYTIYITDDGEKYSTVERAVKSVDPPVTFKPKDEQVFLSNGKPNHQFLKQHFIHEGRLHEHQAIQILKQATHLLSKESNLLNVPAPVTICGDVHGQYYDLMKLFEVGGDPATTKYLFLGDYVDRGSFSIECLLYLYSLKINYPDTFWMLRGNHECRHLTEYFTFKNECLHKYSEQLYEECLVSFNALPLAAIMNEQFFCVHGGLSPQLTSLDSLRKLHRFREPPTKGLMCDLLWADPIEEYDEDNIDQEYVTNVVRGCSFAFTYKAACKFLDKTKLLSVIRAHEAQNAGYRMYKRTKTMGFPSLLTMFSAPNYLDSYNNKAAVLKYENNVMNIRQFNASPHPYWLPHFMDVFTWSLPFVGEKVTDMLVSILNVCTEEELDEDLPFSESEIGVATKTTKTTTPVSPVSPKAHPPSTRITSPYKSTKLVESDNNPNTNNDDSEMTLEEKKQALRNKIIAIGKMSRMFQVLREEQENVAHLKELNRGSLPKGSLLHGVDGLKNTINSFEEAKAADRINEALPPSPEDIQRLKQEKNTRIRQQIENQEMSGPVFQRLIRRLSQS

T2 sequence (P09923 whole entry): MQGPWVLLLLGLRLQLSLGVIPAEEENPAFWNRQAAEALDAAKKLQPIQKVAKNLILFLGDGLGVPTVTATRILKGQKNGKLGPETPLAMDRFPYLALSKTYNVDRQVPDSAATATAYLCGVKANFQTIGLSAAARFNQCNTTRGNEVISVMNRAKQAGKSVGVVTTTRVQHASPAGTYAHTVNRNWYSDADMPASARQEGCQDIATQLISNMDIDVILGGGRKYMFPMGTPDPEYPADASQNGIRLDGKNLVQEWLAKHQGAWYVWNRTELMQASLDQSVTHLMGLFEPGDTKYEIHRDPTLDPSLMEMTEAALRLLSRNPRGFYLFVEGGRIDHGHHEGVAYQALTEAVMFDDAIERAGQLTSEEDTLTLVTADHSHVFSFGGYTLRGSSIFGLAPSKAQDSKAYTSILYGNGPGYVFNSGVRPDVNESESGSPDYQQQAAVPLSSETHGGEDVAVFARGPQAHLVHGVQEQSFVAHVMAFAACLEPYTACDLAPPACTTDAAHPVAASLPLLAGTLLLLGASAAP
T4 sequence (P41145 whole entry): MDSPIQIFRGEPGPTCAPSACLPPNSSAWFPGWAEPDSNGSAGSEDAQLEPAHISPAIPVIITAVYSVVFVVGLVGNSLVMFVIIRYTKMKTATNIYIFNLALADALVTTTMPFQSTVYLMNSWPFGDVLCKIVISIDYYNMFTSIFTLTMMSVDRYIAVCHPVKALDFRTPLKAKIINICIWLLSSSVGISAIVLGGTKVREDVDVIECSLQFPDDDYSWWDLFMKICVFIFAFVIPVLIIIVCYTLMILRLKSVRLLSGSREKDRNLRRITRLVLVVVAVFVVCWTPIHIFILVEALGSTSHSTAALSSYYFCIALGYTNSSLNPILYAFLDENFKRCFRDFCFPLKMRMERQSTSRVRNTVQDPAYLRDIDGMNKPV
T11 sequence (Q00975 whole entry): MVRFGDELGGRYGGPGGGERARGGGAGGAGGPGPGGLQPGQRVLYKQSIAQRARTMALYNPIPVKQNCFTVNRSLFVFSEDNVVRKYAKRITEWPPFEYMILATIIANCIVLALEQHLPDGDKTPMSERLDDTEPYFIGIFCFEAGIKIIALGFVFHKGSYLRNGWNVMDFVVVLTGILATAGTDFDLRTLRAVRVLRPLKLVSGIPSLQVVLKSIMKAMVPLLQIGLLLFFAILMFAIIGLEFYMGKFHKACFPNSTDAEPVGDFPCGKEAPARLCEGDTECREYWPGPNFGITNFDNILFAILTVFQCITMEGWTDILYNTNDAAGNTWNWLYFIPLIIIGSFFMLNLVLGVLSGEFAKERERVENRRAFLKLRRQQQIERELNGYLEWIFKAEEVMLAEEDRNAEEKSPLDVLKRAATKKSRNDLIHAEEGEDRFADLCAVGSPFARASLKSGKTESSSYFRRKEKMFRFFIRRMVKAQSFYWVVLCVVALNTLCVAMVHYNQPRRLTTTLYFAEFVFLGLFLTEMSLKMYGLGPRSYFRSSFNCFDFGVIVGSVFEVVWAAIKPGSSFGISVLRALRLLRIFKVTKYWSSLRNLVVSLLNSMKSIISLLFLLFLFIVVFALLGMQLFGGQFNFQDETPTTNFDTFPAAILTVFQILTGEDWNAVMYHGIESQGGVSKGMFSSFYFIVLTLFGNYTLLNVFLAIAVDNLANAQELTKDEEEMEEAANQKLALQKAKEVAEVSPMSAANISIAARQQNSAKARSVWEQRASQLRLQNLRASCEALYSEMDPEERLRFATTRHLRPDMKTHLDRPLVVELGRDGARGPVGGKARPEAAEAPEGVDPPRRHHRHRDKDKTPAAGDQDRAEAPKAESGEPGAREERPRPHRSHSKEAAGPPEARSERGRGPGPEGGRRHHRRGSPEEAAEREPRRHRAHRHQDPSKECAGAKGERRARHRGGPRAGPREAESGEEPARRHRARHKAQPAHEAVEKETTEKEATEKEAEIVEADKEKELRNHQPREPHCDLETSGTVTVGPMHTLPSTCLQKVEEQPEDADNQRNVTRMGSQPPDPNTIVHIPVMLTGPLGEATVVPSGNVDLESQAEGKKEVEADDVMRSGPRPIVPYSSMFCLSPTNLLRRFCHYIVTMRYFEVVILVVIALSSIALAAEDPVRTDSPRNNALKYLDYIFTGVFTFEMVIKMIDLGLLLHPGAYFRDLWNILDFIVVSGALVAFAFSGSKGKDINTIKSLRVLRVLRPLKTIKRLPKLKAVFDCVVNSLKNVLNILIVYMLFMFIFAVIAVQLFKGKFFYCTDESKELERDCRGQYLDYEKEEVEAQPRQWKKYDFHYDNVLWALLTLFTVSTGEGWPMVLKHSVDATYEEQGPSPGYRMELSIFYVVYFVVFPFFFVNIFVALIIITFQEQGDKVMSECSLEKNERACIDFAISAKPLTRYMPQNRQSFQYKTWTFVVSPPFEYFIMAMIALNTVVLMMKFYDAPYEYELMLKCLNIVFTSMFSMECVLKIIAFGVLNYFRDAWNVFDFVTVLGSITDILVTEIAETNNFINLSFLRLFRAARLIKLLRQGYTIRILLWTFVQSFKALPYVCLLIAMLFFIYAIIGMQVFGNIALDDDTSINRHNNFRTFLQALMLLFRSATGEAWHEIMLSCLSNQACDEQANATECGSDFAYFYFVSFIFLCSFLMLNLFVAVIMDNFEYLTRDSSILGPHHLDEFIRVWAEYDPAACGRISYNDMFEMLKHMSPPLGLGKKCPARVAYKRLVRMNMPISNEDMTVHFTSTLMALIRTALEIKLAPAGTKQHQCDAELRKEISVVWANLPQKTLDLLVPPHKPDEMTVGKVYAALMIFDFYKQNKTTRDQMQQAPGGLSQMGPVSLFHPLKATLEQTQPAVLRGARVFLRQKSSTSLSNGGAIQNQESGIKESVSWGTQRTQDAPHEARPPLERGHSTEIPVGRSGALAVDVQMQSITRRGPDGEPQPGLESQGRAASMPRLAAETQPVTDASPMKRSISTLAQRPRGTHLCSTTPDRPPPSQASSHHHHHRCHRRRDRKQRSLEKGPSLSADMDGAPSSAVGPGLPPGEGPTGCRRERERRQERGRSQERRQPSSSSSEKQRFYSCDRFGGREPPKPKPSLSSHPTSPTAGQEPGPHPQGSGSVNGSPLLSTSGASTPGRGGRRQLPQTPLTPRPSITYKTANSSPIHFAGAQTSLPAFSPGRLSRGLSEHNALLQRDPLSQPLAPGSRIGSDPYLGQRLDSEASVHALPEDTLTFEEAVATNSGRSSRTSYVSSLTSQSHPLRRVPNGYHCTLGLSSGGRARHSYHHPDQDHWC
T11 sequence (Q02410 whole entry): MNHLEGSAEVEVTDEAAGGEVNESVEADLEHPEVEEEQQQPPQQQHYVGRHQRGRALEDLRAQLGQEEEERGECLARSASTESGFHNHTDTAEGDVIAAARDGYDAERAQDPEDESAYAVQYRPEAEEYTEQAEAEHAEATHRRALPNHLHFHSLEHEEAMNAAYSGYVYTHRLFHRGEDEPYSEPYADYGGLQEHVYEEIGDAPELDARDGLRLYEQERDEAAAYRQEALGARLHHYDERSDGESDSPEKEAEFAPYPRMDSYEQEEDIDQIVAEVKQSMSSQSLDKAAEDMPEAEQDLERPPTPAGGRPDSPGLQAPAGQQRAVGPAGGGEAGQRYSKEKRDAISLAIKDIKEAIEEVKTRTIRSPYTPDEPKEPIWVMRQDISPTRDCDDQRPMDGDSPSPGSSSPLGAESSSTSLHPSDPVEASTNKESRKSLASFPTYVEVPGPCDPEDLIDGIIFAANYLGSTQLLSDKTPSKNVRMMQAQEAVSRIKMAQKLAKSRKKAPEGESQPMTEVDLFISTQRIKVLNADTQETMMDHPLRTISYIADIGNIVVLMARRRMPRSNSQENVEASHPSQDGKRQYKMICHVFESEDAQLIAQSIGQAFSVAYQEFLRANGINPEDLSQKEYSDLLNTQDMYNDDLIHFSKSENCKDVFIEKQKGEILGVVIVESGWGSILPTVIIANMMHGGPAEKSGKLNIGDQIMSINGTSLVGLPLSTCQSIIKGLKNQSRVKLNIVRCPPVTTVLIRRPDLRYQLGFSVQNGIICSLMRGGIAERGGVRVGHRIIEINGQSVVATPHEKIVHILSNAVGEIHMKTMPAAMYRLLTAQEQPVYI
T10 sequence (P63165 whole entry): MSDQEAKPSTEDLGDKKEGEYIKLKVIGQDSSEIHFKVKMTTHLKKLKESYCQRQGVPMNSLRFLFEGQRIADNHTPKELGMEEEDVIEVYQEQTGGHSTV
T6 sequence (P35372 whole entry): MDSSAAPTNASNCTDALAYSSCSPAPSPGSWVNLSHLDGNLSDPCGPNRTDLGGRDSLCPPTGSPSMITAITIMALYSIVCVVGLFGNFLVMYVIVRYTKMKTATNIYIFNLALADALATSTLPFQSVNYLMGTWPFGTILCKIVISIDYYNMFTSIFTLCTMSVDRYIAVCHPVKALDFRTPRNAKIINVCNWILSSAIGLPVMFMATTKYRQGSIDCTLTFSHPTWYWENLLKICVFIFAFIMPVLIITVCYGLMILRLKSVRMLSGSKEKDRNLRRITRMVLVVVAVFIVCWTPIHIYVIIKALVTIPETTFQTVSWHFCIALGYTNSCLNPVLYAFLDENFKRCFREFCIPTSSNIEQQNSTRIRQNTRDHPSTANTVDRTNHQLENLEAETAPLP
T5 sequence (P41143 whole entry): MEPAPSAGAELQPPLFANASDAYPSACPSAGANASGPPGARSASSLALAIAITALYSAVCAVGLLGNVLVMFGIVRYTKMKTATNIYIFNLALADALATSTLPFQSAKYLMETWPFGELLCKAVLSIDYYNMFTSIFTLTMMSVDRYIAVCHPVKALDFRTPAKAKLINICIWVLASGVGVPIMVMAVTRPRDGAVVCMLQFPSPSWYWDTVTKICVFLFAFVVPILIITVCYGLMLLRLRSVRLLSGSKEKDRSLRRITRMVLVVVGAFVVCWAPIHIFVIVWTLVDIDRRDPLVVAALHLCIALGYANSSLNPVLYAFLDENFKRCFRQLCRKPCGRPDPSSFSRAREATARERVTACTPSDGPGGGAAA

Question: Which IC50 [1] does the source give for `Oc1cc(O)c2c(c1)OC(c1ccc(O)c(O)c1)C(O)C2` (stereo not drawn) here?
Answer: 24.1 µM (active)

Question: What about the IC50 (Large T antigen) of the same compound?
Answer: 8.64 µM (active)

Question: And the IC50 [2]?
Answer: > 100 µM (inactive)

Question: And the IC50 [3]?
Answer: > 100 µM (inactive)

Question: For `COc1ccc(CC2(CO)CCN(Cc3nccn3-c3cccc(C)c3)CC2)cc1`, which EC50 [4] is on record?
Answer: > 10 µM (inactive)

Question: What about the EC50 [5] of the same compound?
Answer: > 32 µM (inactive)

Question: What about the IC50 [6] of the same compound?
Answer: > 32 µM (inactive)

Question: And the IC50 [7]?
Answer: > 32 µM (inactive)

Question: And the EC50 (Mu-type opioid receptor [8])?
Answer: > 32 µM (inactive)

Question: And the IC50 (Mu-type opioid receptor [9])?
Answer: > 32 µM (inactive)

Question: And the EC50 [10]?
Answer: > 32 µM (inactive)

Question: For `COc1cc(/N=c2\ssnc2Cl)c(OC)cc1Cl`, which IC50 [11] is on record?
Answer: 6.24 µM (active)

Question: What about the IC50 [12] of the same compound?
Answer: 15.2 µM (active)

Question: And the IC50 [13]?
Answer: 3.12 µM (active)

Question: And the IC50 (Phosphomannomutase 2)?
Answer: 97.3 µM (active)

Question: Which results are given for `C=C(C)C(=O)Nc1cccc(C2=NOC3(C2)C[C@@H](C(N)=O)N(C(=O)/C(C)=C/C)C3)c1` (stereo partly drawn)?
Answer: EC50 [14]: 1.69 µM (active); IC50 [15]: 0.54 µM (active); IC50 [16]: > 66.6 µM (inactive); IC50 [17]: 1.94 µM (active); IC50 [18]: 0.869 µM (active); IC50 [19]: 17.7 µM (active); IC50 [20]: > 50 µM (inactive); IC50 [21]: 23.6 µM (not active)

Question: `Cc1nc2c3ccccc3nc(NNC(=O)CCC(=O)NCCC(C)C)n2n1` was tested. Which IC50 [22] did it give?
Answer: 50.4 µM (active)

Question: And the EC50 [23]?
Answer: 19.2 µM (active)

Question: And the EC50 [24]?
Answer: 7.93 µM (active)

Question: What about the EC50 [25] of the same compound?
Answer: 12.5 µM (active)

Question: Which EC50 [26] does the source give for `Nc1nccnc1C(=O)Nc1nnc(SCc2ccc(Cl)cc2)s1` here?
Answer: > 285 µM (inactive)
